The values that follow come from patent publication US6814968B1, “Inhibition of viral infection and spread with viral and RhoA-derived peptides” (priority 1998, dated 2004).

Entries after “also recorded” stand apart in the source; their conditions may differ.

Assay [1] deals with HIV-1.
For assay [2], the system named is RSV. Nature of the assay: RSV plaque inhibition assay: peptide pre-incubated with RSV, added to HEp-2 cells. The assay is classed as cell-based, respiratory syncytial virus (A2 strain). The conditions noted are these: 3 days; for plaque formation: peptide 5 mg/ml and 10 mg/ml incubated 1 h with RSV, vs PBS controls.
For assay [3], the system named is RSV. As to the kind of experiment: Cell-to-cell spread / syncytium formation of RSV in HEp-2 monolayers, peptide added to cells. In kind it is cell-based, respiratory syncytial virus.
Assay [4] concerns HIV. As to the kind of experiment: MAGI cell assay of HIV entry. The assay is classed as cell-based. The conditions noted are these: β-galactosidase activity as endpoint.
The subject of assay [5] is parainfluenza virus 3 (PIV3). Nature of the assay: Syncytium formation by parainfluenza virus 3 in HEp-2 cells. The assay is classed as cell-based. As to the method:
RhoA77-95 was also added to HEp-2 cells in conjunction with parainfluenza virus 3 (PIV3) as infectious agent, as well as MT-2 cells, in conjunction with human immunodeficiency virus 1 (HIV-1) as infectious agent. Both viruses are known to cause the formation of syncytia during infection.

Assay [6] has as its system RSV. Nature of the assay: RSV infection of BALB/c mice, intranasal peptide treatment. In kind it is in vivo.
In assay [7] the test system is RSV. In kind it is cell-based, respiratory syncytial virus. The conditions noted are these: protein added to RSV prior to infection of HEp-2 cells.
Setting [8] is: 10 amino acid peptides added to HEp-2 cell medium.
[9] abbreviates: 500 μg intranasally at the time of RSV challenge, 10^7 pfu RSV.
The mark [10] stands for this setting: 500 μg intranasally on day 4 after RSV infection, vs PBS-treated controls.

Regarding “RhoA67-85: 19 amino acid peptide comprising RhoA amino acids 67-85 (DRLRPLSYPDTDVILMCFS; UniProt P61586 67-85, looked up, fragment)”, in assay [1], the “destruction of infected MT-2 cells” value is “completely destroyed by day 14” and the “syncytium formation by HIV-1” value is on record as “visible syncytia by day 4”. Besides, the plaque formation entry in assay [2] is “no inhibition”.

In the case of “RhoA77-86: 10 amino acid peptide, RhoA residues 77-86 (TDVILMCFSI; UniProt P61586 77-86, looked up, fragment)”, the syncytium formation result in assay [3] (setting [8]) is “did not block”.

As for “RhoA77-95: 19 amino acid peptide comprising the sequence of amino acids 77-95 of the RhoA protein (TDVILMCFSIDSPDSLENI; UniProt P61586 77-95, looked up, fragment)”, the “HIV virus entry into cells” value in assay [4] is on record as “Inhibition”. In assay [3] (peptide 5 mg/ml added 20 or 24 hours post-adsorption, HEp-2, evaluated after three days), the syncytia formation entry was “inhibited syncytia formation”. For the same substance, the “number of virus infected cells” value in assay [3] (peptide 5 mg/ml added 4 hours after RSV adsorption, HEp-2, evaluated after three days) was “reduced the number of virus infected cells and limited infection to single cells”. Further, in assay [3] (peptide added after RSV adsorption, HEp-2), the “cell-to-cell spread of RSV” value is given as “inhibited”. For the same substance, in assay [1], the “HIV-1 replication (RT and p24 assays)” value is listed as “inhibited”; the “HIV-1 virus entry into / infection of MT-2 cells” value is reported as “inhibited”; the “reverse transcriptase activity in culture supernatants” value is recorded as “undetectable”. Also, the “syncytium formation by PIV3” value in assay [5] is recorded as “inhibited”. The “antigen-positive cells by immunoperoxidase staining” value in assay [2] (RSV-specific antibody) was “no antigen-positive cells were found”. Besides, the plaque formation entry in assay [2] is on record as “completely blocked; also recorded: inhibited; also recorded: inhibit plaque formation”. In assay [6] (setting [9]), the illness result was “no discernable illness” and the weight loss result is reported as “no discernable illness or weight loss”. For the same substance, in assay [6] (setting [10]), the signs of illness entry is given as “markedly diminished” and the weight loss result is given as “slight reduction”. Besides, the “inhibition of RSV in vivo” value in assay [6] (administered to mice) is “inhibited RSV in vivo”. In assay [6] (peptide treatment on day 0 (time of challenge), lung plaque assay), the “Day 5 RSV Titer (Log10 pfu/gram lung ± S.D.)” value is 3.7 ± 0.3 Log10 pfu/gram lung. In assay [6] (peptide treatment on day 4, lung plaque assay), the “Day 5 RSV Titer (Log10 pfu/gram lung ± S.D.)” value was found to be 4.7 ± 0.3 Log10 pfu/gram lung. Further, the “decrease of RSV titers in lung” value in assay [6] (treatment at the time of infection, day 5 lungs) was “over 100 fold”. For the same substance, in assay [6] (treatment on day 4, day 5 lungs), the “reduction of RSV titers in lung” value is listed as “more than 10 fold”.

Take “RhoA80-89: 10 amino acid peptide comprising amino acid residues 80-89 of the RhoA protein sequence (ILMCFSIDSP; UniProt P61586 80-89, looked up, fragment)”: the “RSV entry into HEp-2 cells” value in assay [3] (setting [8]) is reported as “completely blocked”.

“RhoA83-92: 10 amino acid peptide, RhoA residues 83-92 (CFSIDSPDSL; UniProt P61586 83-92, looked up, fragment)”: in assay [3] (setting [8]), the syncytium formation result is given as “did not block”.

“RhoA87-105: 19 amino acid peptide comprising RhoA amino acids 87-105 (DSPDSLENIPEKWTPEVKH; UniProt P61586 87-105, looked up, fragment)”: in assay [1], the “destruction of infected MT-2 cells” value is recorded as “completely destroyed by day 14” and the “syncytium formation by HIV-1” value is “visible syncytia by day 4”. Further, in assay [2], the plaque formation entry is reported as “no inhibition”.

With “whole RhoA protein: whole RhoA protein, 193 amino acid small GTP-binding protein”, the “number and size of plaques” value in assay [7] is “increased”.
